Molecules are shown by their SMILES. pIC50: −log10 of the molar value. Like-named read-outs stand apart in the source and are kept apart here.

This assay addresses T1, human CRTH2 (Homo sapiens, UniProt Q9Y5Y4).
T1 construct: expressed in transfected cells
T1 sequence (Q9Y5Y4 1-395): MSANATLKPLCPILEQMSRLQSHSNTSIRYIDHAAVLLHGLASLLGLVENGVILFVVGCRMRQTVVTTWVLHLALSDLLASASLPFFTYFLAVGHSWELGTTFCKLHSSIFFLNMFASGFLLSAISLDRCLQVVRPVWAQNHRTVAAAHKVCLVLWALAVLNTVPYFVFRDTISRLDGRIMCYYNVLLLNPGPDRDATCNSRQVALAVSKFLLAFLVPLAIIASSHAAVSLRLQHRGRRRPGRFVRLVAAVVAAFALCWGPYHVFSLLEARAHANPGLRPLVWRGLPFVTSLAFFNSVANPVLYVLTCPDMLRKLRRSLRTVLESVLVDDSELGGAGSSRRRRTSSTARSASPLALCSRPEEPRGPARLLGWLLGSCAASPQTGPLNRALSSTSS
The experiment in a line: [35S]GTPγS binding assay (SPA) on membranes from CHO-K1 cells stably expressing human CRTH2, stimulated with 60 nM DHK-PGD2. It counts as biochemical. The conditions noted are these: read-out: CRTH2 hGTPγS IC50. As for the experimental part: [^35S]GTPγS Binding Assay
SPA [^35S]G-TPγS binding was performed on membranes from CHO-K1 cells stably expressing human CRTH2. To a white, clear-bottomed 384-well plate, 4 μg membrane protein was incubated in the binding buffer (20 mM HEPES, pH 7.4, 10 mM MgCl2, 300 mM NaCl, 0.2% BSA) with 60 nM DHK-PGD2, 500 pM [^35S]GTPγS, 10 μM GDP, and 100 μg wheat germ agglutinin-coupled SPA beads (GE Healthcare) with and without increasing concentrations of compounds. The final assay volume was 40 μL and contained 1% DMSO. Samples were incubated for 2 h at ambient temperature. Plates were centrifuged 5 min at 1500 rpm. Plates were read after an additional 4 h using the Trilux 1450 Microbeta (PerkinElmer) with a 30 sec/well reading time.

[1] abbreviates: membranes of CHO-K1 cells expressing human CRTH2, 60 nM DHK-PGD2, Table 1.

One may read the pIC50 as the IC50 on a negative log10 scale, so that one unit is a factor of ten. `CN(Cc1ccc(OCC(=O)O)c(-c2cccc(C#N)c2)c1)S(=O)(=O)c1ccc(F)cc1` [Example 5, 2-(2-(3-cyanophenyl)-4-((4-fluoro-N-methylphenylsulfonamido)methyl)phenoxy)acetic acid]: the negative logarithm of the IC50 (pIC50) (potency class symbols, Table 2) is more than 7.00.
On the same count and under the same terms, then `N#Cc1cccc(-c2cc(CNS(=O)(=O)c3ccc(F)cc3)ccc2OCC(=O)O)c1` [Example 9, 2-(2-(3-cyanophenyl)-4-((4-fluorophenylsulfonamido)methyl)phenoxy)acetic acid], with more than 7.00; and `CNS(=O)(=O)c1cccc(-c2cc(CN(C)S(=O)(=O)c3ccc(F)c(Cl)c3)ccc2OCC(=O)O)c1` [Example 16, 2-(2-(3-N-methylsulfamoylphenyl)-4-((3-chloro-4-fluoro-N-methylphenylsulfonamido)methyl)phenoxy)acetic acid], with more than 7.00.
On the same count and under the same terms, then `CC(c1ccc(OCC(=O)O)c(-c2cccc(C(F)(F)F)c2)c1)N(C)S(=O)(=O)c1ccc(F)cc1` (stereo not drawn) [Example 22, 2-(2-(3-trifluoromethylphenyl)-4-(1-(4-fluoro-N-methylphenylsulfonamido)ethyl)phenoxy)acetic acid], with 6.00 to 7.00; and `CN(Cc1ccc(OCC(=O)O)c(-c2ccc(F)c(S(C)(=O)=O)c2)c1)S(=O)(=O)c1ccc(F)cc1` [Example 28, 2-((4-fluoro-3-(methylsulfonyl)phenyl)-4-((4-fluoro-N-methylphenylsulfonamido)methyl)phenoxy)acetic acid], with more than 7.00.
Still for that read-out and setting: then `CN(Cc1ccc(OC(C)(C)C(=O)O)c(-c2cccc(C(F)(F)F)c2)c1)S(=O)(=O)c1ccc(F)cc1` [Example 34, 2-(2-(3-trifluoromethylphenyl)-4-((4-fluoro-N-methylphenylsulfonamido)methyl)phenoxy)-2-methylpropanoic acid], with 5.00 to 6.00; and `C[C@@H](Oc1ccc(CN(C)S(=O)(=O)c2ccc(F)cc2)cc1-c1cccc(C(F)(F)F)c1)C(=O)O` [Example 35, (R)-2-(2-(3-trifluoromethylphenyl)-4-((4-fluoro-N-methylphenylsulfonamido)methyl)phenoxy)propanoic acid], with 5.00 to 6.00; and `C[C@H](Oc1ccc(CN(C)S(=O)(=O)c2ccc(F)cc2)cc1-c1cccc(C(F)(F)F)c1)C(=O)O` [Example 36, (S)-2-(2-(3-trifluoromethylphenyl)-4-((4-fluoro-N-methylphenylsulfonamido)methyl)phenoxy)propanoic acid], with 6.00 to 7.00.
Consider `COc1cc(F)cc(-c2cc(CN(C)S(=O)(=O)c3ccc(F)c(Cl)c3)ccc2OCC(=O)O)c1` [Example 37, 2-(3-fluoro-5-methoxyphenyl)-4-((3-chloro-4-fluoro-N-methylphenylsulfonamido)methyl)phenoxyacetic acid], for which the pIC50 runs as follows: under setting [1], 9.22; (potency class symbols, Table 2) more than 7.00.
The matching figures for `CN(Cc1ccc(OCC(=O)O)c(-c2cc(F)cc(C#N)c2)c1)S(=O)(=O)c1ccc(Cl)c(Cl)c1` [Example 38, 2-(3-cyano-5-fluorophenyl)-4-((3,4-dichloro-N-methylphenylsulfonamido)methyl)phenoxyacetic acid]: 9.15 and more than 7.00.
With `CN(Cc1ccc(OCC(=O)O)c(-c2cccc(S(C)(=O)=O)c2)c1)S(=O)(=O)c1ccc(F)c(Cl)c1` [Example 39, 2-(3-methylsulfonylphenyl)-4-((3-chloro-4-fluoro-N-methylphenylsulfonamido)methyl)phenoxyacetic acid], the negative logarithm of the IC50 (pIC50) (potency class symbols, Table 2) was more than 7.00.
On the same count and under the same terms, under `COc1ccc(S(=O)(=O)N(C)Cc2ccc(OCC(=O)O)c(-c3cc(F)cc(C#N)c3)c2)cc1F` [Example 41, 2-(3-cyano-5-fluorophenyl)-4-((3-fluoro-4-methoxy-N-methylphenylsulfonamido)methyl)phenoxyacetic acid] stands more than 7.00.
Consider `CN(Cc1cc(-c2cccc(C#N)c2)c(OCC(=O)O)cc1Cl)S(=O)(=O)c1ccc(F)c(Cl)c1` [Example 42, 2-(3-cyanophenyl)-4-((3-chloro-4-fluoro-N-methylphenylsulfonamido)methyl)-5-chlorophenoxyacetic acid], for which the negative-log IC50 (pIC50) was 8.82 under setting [1] and more than 7.00 (potency class symbols, Table 2).
`CN(Cc1cc(-c2cccc(C#N)c2)c(OCC(=O)O)cc1F)S(=O)(=O)c1ccc(F)c(Cl)c1` [Example 43, 2-(3-cyanophenyl)-4-((3-chloro-4-fluoro-N-methylphenylsulfonamido)methyl)-5-fluorophenoxyacetic acid]: under “potency class symbols, Table 2”, the pIC50 was more than 7.00.
Regarding `CN(Cc1ccc(OCC(=O)O)c(-c2cc(F)cc(C#N)c2)c1)S(=O)(=O)c1ccc(F)c(F)c1` [Example 44, 2-(3-cyano-5-fluorophenyl)-4-((3,4-difluoro-N-methylphenylsulfonamido)methyl)phenoxyacetic acid], the pIC50 under setting [1] was 8.74 and the pIC50 (potency class symbols, Table 2) was more than 7.00.
The matching figures for `CN(Cc1ccc(OCC(=O)O)c(-c2cc(F)cc(C#N)c2)c1)S(=O)(=O)c1cccc(Cl)c1` [Example 45, 2-(3-cyano-5-fluorophenyl)-4-((3-chloro-N-methylphenylsulfonamido)methyl)phenoxyacetic acid]: 8.70 and more than 7.00.
For `COc1cc(F)cc(-c2cc(CN(C)S(=O)(=O)c3ccc(F)c(F)c3)ccc2OCC(=O)O)c1` [Example 46, 2-(3-fluoro-5-methoxyphenyl)-4-((3,4-difluoro-N-methylphenylsulfonamido)methyl)phenoxyacetic acid], the pIC50 is, setting by setting: under setting [1], 8.68; (potency class symbols, Table 2) more than 7.00.
For the compound `CN(Cc1ccc(OCC(=O)O)c(-c2cccc(S(C)(=O)=O)c2)c1)S(=O)(=O)c1ccc(F)c(F)c1` [Example 47, 2-(3-methylsulfonylphenyl)-4-((3,4-difluoro-N-methylphenylsulfonamido)methyl)phenoxyacetic acid], the pIC50 (potency class symbols, Table 2) was more than 7.00.
With `COc1cc(F)cc(-c2cc(CN(C)S(=O)(=O)c3ccc(OC)c(F)c3)ccc2OCC(=O)O)c1` [Example 48, 2-(3-fluoro-5-methoxyphenyl)-4-((3-fluoro-4-methoxy-N-methylphenylsulfonamido)methyl)phenoxyacetic acid], the pIC50 runs as follows: under setting [1], 8.54; (potency class symbols, Table 2) more than 7.00.
`CN(Cc1cc(-c2cccc(C#N)c2)c(OCC(=O)O)cc1Cl)S(=O)(=O)c1ccc(F)cc1` [Example 49, 2-(3-cyanophenyl)-4-((4-fluoro-N-methylphenylsulfonamido)methyl)-5-chlorophenoxyacetic acid]: under “potency class symbols, Table 2”, the negative-log IC50 (pIC50) is more than 7.00.
On the same count and under the same terms, then `CNS(=O)(=O)c1cccc(-c2cc(CN(C)S(=O)(=O)c3ccc(F)c(F)c3)ccc2OCC(=O)O)c1` [Example 50, 2-(3-N-methylsulfamoylphenyl)-4-((3,4-difluoro-N-methylphenylsulfonamido)methyl)phenoxyacetic acid], with more than 7.00.
For the compound `CN(Cc1ccc(OCC(=O)O)c(-c2cc(F)cc(F)c2)c1)S(=O)(=O)c1ccc(Cl)c(Cl)c1` [Example 51, 2-(3,5-difluorophenyl)-4-((3,4-dichloro-N-methylphenylsulfonamido)methyl)phenoxyacetic acid], the pIC50 is, setting by setting: under setting [1], 8.47; (potency class symbols, Table 2) more than 7.00.
For `CN(Cc1ccc(OCC(=O)O)c(-c2cccc(S(N)(=O)=O)c2)c1)S(=O)(=O)c1ccc(F)cc1` [Example 52, 2-(3-aminosulfonylphenyl)-4-((4-fluoro-N-methylphenylsulfonamido)methyl)phenoxyacetic acid], the pIC50 (potency class symbols, Table 2) is more than 7.00.
The same measure, in the same setting: then `CN(Cc1cc(-c2cccc(C#N)c2)c(OCC(=O)O)cc1Cl)S(=O)(=O)c1cccc(F)c1` [Example 53, 2-(3-cyanophenyl)-4-((3-fluoro-N-methylphenylsulfonamido)methyl)-5-chlorophenoxyacetic acid], with more than 7.00.
Same read-out and setting: under `CNS(=O)(=O)c1cccc(-c2cc(CN(C)S(=O)(=O)c3ccc(F)cc3)ccc2OCC(=O)O)c1` [Example 54, 2-(3-N-methylsulfamoylphenyl)-4-((4-fluoro-N-methylphenylsulfonamido)methyl)phenoxyacetic acid] stands more than 7.00; under `CN(Cc1ccc(OCC(=O)O)c(-c2cc(F)cc(C#N)c2)c1)S(=O)(=O)c1ccc(F)c(Cl)c1` [Example 55, 2-(3-cyano-5-fluorophenyl)-4-((3-chloro-4-fluoro-N-methylphenylsulfonamido)methyl)phenoxyacetic acid], more than 7.00; under `CN(Cc1ccc(OCC(=O)O)c(-c2cccc(C#N)c2)c1)S(=O)(=O)c1ccc(Cl)c(Cl)c1` [Example 56, 2-(3-cyanophenyl)-4-((3,4-dichloro-N-methylphenylsulfonamido)methyl)phenoxyacetic acid], more than 7.00.
On to `CN(Cc1ccc(OCC(=O)O)c(-c2cccc(S(C)(=O)=O)c2)c1)S(=O)(=O)c1cccc(F)c1` [Example 57, 2-(3-methylsulfonylphenyl)-4-((3-fluoro-N-methylphenylsulfonamido)methyl)phenoxyacetic acid], for which the pIC50 (potency class symbols, Table 2) was more than 7.00.

(Values after US8822467B2 (Ligand Pharmaceuticals Inc., priority 2009, dated 2014).)
